Results as given in PMC8387736 (Drug Design, Development and Therapy, 2021).
Read-outs that look alike come from different tables or passages of the source.

Key:
[1] = rats
[2] = target: T1, CYP2E1 (Homo sapiens, UniProt P05181); experiment: biochemical
[3] = target: cyp2e1 (Rattus norvegicus, UniProt P05182); experiment: Inhibition of chlorzoxazone metabolism by avitinib in rat liver microsomes
[4] = target: T2, CYP2C9 (Homo sapiens, UniProt P11712); details: HLMs
[5] = target: T3, cyp1a2 (Rattus norvegicus, UniProt P04799); experiment: Inhibition of phenacetin metabolism by avitinib in rat liver microsomes
T3 sequence (P04799 1-513): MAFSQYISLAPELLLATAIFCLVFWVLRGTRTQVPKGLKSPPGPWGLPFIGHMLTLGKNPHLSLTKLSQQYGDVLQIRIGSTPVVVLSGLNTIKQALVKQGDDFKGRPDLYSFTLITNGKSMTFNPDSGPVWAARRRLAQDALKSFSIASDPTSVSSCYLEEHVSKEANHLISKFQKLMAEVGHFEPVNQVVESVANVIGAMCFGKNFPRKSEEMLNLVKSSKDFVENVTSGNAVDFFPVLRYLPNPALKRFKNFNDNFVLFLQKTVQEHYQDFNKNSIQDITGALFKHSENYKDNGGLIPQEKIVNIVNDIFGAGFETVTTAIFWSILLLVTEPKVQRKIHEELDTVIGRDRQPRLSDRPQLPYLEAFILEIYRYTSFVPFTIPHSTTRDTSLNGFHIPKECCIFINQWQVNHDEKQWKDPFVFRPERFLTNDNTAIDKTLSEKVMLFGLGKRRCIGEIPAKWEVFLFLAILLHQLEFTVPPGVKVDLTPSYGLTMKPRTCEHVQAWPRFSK

[6] = target: T4, CYP1A2 (Homo sapiens, UniProt P05177); experiment: biochemical
T4 sequence (P05177 1-516): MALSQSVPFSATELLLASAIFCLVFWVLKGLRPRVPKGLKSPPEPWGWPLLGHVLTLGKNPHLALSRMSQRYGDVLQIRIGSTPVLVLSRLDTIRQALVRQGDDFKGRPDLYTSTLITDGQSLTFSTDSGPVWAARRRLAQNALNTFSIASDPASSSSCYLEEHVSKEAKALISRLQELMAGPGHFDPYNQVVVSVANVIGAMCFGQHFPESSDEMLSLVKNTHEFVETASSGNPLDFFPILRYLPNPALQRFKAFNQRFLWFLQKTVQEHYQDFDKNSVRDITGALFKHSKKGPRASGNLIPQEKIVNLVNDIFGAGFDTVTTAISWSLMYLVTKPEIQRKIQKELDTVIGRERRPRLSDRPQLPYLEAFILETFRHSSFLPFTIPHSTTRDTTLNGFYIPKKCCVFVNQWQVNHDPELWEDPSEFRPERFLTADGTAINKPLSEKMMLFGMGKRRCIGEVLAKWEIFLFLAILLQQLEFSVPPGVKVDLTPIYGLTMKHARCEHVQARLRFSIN

[7] = target: T5, cyp2d1 (Rattus norvegicus, UniProt P10633); experiment: Inhibition of dextromethorphan metabolism by avitinib in rat liver microsomes
T5 sequence (P10633 1-504): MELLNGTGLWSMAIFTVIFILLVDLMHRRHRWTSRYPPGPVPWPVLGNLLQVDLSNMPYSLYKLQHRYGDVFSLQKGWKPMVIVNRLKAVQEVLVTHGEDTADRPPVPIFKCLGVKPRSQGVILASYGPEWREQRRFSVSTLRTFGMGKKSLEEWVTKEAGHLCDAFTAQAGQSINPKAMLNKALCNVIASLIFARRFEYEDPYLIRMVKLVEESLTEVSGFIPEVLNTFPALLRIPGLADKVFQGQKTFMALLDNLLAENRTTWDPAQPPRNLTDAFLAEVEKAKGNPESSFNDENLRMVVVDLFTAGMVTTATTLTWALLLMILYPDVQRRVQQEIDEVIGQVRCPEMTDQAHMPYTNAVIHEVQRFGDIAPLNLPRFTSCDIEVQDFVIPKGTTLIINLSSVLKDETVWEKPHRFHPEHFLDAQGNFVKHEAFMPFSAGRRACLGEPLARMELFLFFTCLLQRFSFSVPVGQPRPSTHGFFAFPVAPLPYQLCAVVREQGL

[8] = target: T6, CYP2B6 (Homo sapiens, UniProt P20813); experiment: biochemical
T6 sequence (P20813 1-491): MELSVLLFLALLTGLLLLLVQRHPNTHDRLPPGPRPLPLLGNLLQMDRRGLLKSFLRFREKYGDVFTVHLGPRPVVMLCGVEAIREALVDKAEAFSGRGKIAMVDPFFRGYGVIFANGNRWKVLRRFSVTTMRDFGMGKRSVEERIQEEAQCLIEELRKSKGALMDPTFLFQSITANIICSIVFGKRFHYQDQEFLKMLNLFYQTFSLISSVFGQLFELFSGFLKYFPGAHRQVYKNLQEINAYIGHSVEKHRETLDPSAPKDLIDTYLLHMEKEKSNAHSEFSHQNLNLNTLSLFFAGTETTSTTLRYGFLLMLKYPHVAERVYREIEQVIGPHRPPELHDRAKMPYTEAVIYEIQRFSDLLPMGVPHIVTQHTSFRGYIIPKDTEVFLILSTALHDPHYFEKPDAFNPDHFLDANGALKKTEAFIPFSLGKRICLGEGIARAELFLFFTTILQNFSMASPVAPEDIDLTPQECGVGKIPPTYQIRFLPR

[9] = target: T4, CYP1A2; details: HLMs
[10] = target: T2, CYP2C9; experiment: biochemical
[11] = target: T7, CYP2D6 (Homo sapiens, UniProt P10635); experiment: biochemical
T7 sequence (P10635 whole entry): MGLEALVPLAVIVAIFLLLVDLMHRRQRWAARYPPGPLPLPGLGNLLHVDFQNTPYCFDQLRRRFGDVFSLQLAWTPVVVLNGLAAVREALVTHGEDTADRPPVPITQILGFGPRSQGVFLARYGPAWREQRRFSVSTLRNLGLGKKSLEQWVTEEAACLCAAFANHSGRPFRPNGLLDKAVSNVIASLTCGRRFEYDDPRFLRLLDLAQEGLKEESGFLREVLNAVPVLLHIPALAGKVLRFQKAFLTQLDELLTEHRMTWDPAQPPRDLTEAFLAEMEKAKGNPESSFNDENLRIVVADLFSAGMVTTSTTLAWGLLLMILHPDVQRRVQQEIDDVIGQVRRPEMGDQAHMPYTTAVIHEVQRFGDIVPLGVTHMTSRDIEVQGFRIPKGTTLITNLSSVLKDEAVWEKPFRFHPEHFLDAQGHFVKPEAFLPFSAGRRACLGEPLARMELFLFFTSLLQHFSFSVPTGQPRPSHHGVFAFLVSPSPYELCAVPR

[12] = target: T7, CYP2D6; details: HLMs
[13] = test system: cyp3as; experiment: Inhibition of midazolam metabolism by avitinib in rat liver microsomes
[14] = test system: CYP3As; experiment: Inhibition of midazolam metabolism by avitinib in human liver microsomes; assay type: in vitro ADME
[15] = target: T8, cyp2c11 (Rattus norvegicus, UniProt P08683); experiment: Inhibition of tolbutamide metabolism by avitinib in rat liver microsomes
T8 sequence (P08683 1-500): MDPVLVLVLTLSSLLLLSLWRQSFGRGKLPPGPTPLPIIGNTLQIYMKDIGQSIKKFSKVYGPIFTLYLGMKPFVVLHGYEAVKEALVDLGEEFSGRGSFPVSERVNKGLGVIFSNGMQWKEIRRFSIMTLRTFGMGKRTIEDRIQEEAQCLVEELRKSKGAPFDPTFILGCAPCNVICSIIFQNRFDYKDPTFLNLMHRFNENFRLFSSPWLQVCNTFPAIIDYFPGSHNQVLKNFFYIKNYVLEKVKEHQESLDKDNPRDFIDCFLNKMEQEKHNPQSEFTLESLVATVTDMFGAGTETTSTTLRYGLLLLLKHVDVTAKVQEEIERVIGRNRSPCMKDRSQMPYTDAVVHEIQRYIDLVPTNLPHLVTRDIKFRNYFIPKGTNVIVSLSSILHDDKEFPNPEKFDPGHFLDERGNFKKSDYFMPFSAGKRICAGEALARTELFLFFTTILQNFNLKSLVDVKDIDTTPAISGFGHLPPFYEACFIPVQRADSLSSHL

[16] = target: T9, cyp2b1 (Rattus norvegicus, UniProt P00176); experiment: Inhibition of bupropion metabolism by avitinib in rat liver microsomes
T9 sequence (P00176 1-491): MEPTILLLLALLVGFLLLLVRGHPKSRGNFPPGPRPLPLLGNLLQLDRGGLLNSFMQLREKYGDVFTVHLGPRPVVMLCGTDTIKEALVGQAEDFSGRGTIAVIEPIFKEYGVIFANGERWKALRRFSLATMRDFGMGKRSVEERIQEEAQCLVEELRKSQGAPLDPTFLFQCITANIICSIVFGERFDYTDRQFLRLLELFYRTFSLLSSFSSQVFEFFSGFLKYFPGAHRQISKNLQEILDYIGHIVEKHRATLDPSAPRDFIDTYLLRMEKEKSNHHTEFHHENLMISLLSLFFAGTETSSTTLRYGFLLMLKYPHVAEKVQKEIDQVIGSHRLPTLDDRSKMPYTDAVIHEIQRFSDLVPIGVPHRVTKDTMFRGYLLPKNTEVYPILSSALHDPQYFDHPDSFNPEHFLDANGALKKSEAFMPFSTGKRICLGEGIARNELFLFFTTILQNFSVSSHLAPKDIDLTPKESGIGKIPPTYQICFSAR

[17] = target: T6, CYP2B6; details: HLMs
[18] = target: T1, CYP2E1; details: HLMs
[19] = multiple-doses 30 mg/kg avitinib (7 days)
[20] = avitinib 30 mg/kg multiple-doses or single-dose vs control

T2 sequence (P11712 whole entry): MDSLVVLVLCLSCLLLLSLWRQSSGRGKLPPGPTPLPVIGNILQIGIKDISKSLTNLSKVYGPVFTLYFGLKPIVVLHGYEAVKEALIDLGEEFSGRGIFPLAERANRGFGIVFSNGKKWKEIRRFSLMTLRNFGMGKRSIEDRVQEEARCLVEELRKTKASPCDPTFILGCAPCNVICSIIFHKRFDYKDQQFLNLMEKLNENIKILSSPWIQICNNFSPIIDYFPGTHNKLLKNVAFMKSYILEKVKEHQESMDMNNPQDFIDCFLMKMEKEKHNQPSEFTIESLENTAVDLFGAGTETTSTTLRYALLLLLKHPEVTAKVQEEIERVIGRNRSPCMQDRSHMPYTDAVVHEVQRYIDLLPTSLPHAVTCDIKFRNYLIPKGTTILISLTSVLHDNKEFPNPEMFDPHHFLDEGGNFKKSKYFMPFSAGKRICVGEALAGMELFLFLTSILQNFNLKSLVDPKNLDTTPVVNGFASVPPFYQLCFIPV
T1 sequence (P05181 whole entry): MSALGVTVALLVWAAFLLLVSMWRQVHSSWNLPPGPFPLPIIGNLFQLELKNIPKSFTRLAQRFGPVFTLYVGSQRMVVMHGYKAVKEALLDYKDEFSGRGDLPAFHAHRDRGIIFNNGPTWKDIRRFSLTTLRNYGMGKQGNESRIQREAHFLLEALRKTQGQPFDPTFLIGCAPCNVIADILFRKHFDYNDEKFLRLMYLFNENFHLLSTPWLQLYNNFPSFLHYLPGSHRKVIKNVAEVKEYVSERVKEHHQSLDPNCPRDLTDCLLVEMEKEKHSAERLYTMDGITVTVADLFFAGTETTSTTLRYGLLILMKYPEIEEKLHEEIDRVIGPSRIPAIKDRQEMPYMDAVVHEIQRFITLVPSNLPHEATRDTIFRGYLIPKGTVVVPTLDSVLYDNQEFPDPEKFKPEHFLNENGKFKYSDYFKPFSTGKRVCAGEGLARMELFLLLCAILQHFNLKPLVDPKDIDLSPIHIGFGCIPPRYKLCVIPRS
Chain of cyp2e1 (P05182 whole entry): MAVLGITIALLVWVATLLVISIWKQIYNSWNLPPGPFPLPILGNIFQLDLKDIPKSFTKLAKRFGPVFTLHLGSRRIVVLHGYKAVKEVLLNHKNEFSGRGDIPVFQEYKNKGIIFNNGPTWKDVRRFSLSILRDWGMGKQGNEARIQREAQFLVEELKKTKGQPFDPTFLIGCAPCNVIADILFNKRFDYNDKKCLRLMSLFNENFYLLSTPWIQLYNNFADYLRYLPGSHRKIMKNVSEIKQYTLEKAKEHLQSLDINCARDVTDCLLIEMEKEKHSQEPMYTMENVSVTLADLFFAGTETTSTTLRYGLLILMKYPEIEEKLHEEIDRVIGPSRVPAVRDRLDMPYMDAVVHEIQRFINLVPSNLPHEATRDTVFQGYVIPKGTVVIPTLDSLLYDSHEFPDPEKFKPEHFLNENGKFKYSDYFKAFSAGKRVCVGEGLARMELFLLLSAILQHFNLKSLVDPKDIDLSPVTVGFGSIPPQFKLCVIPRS

In the case of `CC(NC(C)(C)C)C(=O)c1cccc(Cl)c1` (stereo not drawn) [Bupropion], the “reduction of CLz/F compared with control group” value (shortened to “reduction of CLz/F”) [1, 19] is reported as 57.54%, the “reduction of Vz/F compared with control group” value (“reduction of Vz/F” for short) [1, 19] is reported as 62.74% and the “reduction of CLz/F” value ([1]; single-dose 30 mg/kg avitinib) is reported as 53.96%. The “reduction of Vz/F” value ([1]; single-dose 30 mg/kg avitinib) was 64.59%.

With `COc1ccc2c(c1)[C@]13CCCC[C@@H]1[C@H](C2)N(C)CC3` [Dextromethorphan] the “change in Tmax values after avitinib (in words)” value [1, 20] was “No significant changes”, the “reduction of CLz/F” value [1, 19] was 82.22% and the “reduction of Vz/F” value [1, 19] was 73.53%. For the same compound, the “reduction of CLz/F” value ([1]; single-dose 30 mg/kg avitinib) was 67.78% and the “reduction of Vz/F” value ([1]; single-dose 30 mg/kg avitinib) was 69.7%.

For `Cc1ncc2n1-c1ccc(Cl)cc1C(c1ccccc1F)=NC2` [Midazolam], the “difference in Cmax after avitinib (in words)” value [1, 20] was “No significant difference”.

For `CCOc1ccc(NC(C)=O)cc1` [Phenacetin], the “change in t1/2 values after avitinib (in words)” value [1, 20] was “no significant change”, the “reduction of CLz/F” value [1, 19] was 63.17% and the “reduction of Vz/F” value [1, 19] was 63.09%. For the same compound, the “reduction of CLz/F” value ([1]; single-dose 30 mg/kg avitinib) was 39.52%.

With `CCCCNC(=O)NS(=O)(=O)c1ccc(C)cc1` [Tolbutamide] the “difference in Cmax after avitinib (in words)” value [1, 20] was “No significant difference”.

In the case of `C=CC(=O)Nc1cccc(Oc2nc(Nc3ccc(N4CCN(C)CC4)c(F)c3)nc3[nH]ccc23)c1` [avitinib, Avitinib], the IC50 [2] is reported as 57.1 µM, the IC50 [3] is reported as 23.2 µM and the “inhibitory effect on cyp2e1 (grade in words)” value ([3]; RLMs) is reported as “weak”. For the same compound, the “inhibitory effect on CYP2C9 (grade in words)” value [4] was “moderate”, the IC50 [5] was 15.8 µM and the “inhibitory effect on cyp1a2 (grade in words)” value ([5]; RLMs) was “weak”. The IC50 [6] was 48.4 µM, the IC50 [7] was 44.4 µM and the “inhibitory effect on cyp2d1 (grade in words)” value ([7]; RLMs) was “weak”. For the same compound, the IC50 [8] was 22.6 µM, the “inhibitory effect on CYP1A2 (grade in words)” value [9] was “weak” and the IC50 [10] was 6.91 µM. For the same compound, the IC50 [11] was 56.6 µM, the “inhibitory effect on CYP2D6 (grade in words)” value [12] was “weak” and the “inhibitory effect on cyp3as (grade in words)” value ([13]; RLMs) was “weak”. The IC50 at 30 min ([13]; male, Sprague-Dawley, rat, rat liver microsomes, probe midazolam (5 μM)) was 27.6 µM, the “inhibitory effect on CYP3As (grade in words)” value ([14]; HLMs) was “weak” and the IC50 at 30 min ([14]; human, human liver microsomes, probe midazolam (5 μM)) was 59.6 µM. The IC50 [15] was 42.2 µM, the “inhibitory effect on cyp2c11 (grade in words)” value ([15]; RLMs) was “weak” and the IC50 [16] was 6.39 µM. For the same compound, the “inhibitory effect on cyp2b1 (grade in words)” value ([16]; RLMs) was “moderate”, the “inhibitory effect on CYP2B6 (grade in words)” value [17] was “weak” and the “inhibitory effect on CYP2E1 (grade in words)” value [18] was “weak”.
